Measurements taken from patent US9255088B2, “Premature-termination-codons readthrough compounds” (The Regents of the University of California, priority 2010, dated 2016).
Entries after “also recorded” stand apart in the source; their conditions may differ.

Tests used:
[1] = tested on: ATMs1981 autophosphorylation in AT153LA cells (TGA); experiment: Flow cytometry ATMs1981 autophosphorylation (FC-ATM) in AT153LA cells; assay type: cell-based, human; design: FC-ATM (Delta-FI, 30 μM): unit not given here; details: for FCATMs1981: summary of positive results; on FCATMs1981: key: the positive results on various assays are also summarized and labeled as '+'
Description: FC-SMC1 assay was performed as recently described (Nahas et al., 2009). FC-ATM-Ser1981 assay was based on Honda's assay (Honda et al., 2009, Leukemia. 23:409-414) with modifications. In brief, cells were resuspended in PBS and radiated for 10 Gy. After 1 h, the cells were fixed and permeabilized using the FIX & PERM cell permeabilization kit (Invitrogen). The cells were then incubated with 1 μl of mouse ATM-Ser1981 antibody (Cell Signaling Technology) for 2 h at room temperature. Cells were washed and resuspended in 100 μl PBS with Alexa Fluor 488 anti-mouse IgG (Invitrogen) for 45 min. Cells were next washed and resuspended in PBS with 0.2% paraformaldehyde and analyzed using a FACSCalibur (BD).
Studies on readthrough activity of RTC#13 derivatives as measured by FC-ATMS 1981 were performed according to the procedures provided in Example 1.
These two series, 7 and 9, were tested for readthrough activity using an assay in which the ATM protein kinase activity was measured using a flow cytometry-based ATMs1981 autophosphorylation assay (FC-ATM) (Nahas, S. A; et al., Clin. Chem. 2009, 55, 463-72). […] An increased Delta-FI indicates the restoration of ATM kinase activity by a compound.
(§1) These two series, 13 and 15, were again tested for readthrough activity using the assay in which the ATM protein kinase activity was measured by functional flow cytometry (FC-ATM) (Table 4 and FIG. 12). A second assay, irradiation (1R)-induced ATMs1981 nuclear foci formation (IRIF-ATM), was also used to confirm the readthrough activity of these compounds (Table 4 and FIG. 13). Table 3 summarizes the data for the analogues 13 and 15 (at 30 μM), in which the groups R, R′, and X were varied. More detailed data are reported in FIG. 5 (for FC-ATM assay), and in FIG. 6 (for IRIF-ATM assay). […] Thus, the pyrimidinedione unit serves as a good structural replacement for the 2-imino and 2-thioxo thiazolidin-4-one units.

[2] = tested on: plasmid-TAT51: ATM region 5 fragment with nonsense (PTC) mutation c.5623C→T (TGA C); experiment: PTT-ELISA readthrough assay, plasmid-TAT51 (TGA C); details: summary of positive results; plasmid not stated
[3] = tested on: ATM-Ser1981 foci in AT153LA cells (TGA A); experiment: Irradiation-induced ATM-Ser1981 foci (IRIF) in AT153LA cells; on IRIF (ATMs1981): key: the positive results on various assays are also summarized and labeled as '+'; assay type: cell-based, human; details: for IR-induced ATMs1981 foci formation, readthrough activity: A-T153LA cells (TGA), FIG. 13; for IRIF-ATM (%) (30 μM): Table 4, IR-induced ATMs1981 nuclear foci formation
Description: To evaluate the function of RTC-induced ATM protein, we measured irradiation-induced foci (IRIF) formation of ATM-Ser1981 in the same ATI53LA cells (TGA A). […] The maximum IRIF induction achieved in A-T cells by 10 μM RTC#13 was ˜40% of wild-type level. As a positive readthrough control, 144 μM of G418 (100 μg/ml) was used to treat cells. Our previous studies had shown that, at this concentration, […] induced a maximum level of ATMs1981 IRIF (Lai et al., 2004).
Immunostaining of nuclear foci of ATM-Ser1981 was performed as previously reported (Du et al., 2007). In brief, after being treated with compound for 4 d, cells were irradiated with 2 Gy and incubated at 37° C. for 30 min. The cells were dropped onto coverslips, fixed with 4% paraformaldehyde, and permeabilized. Coverslips were blocked for 1 h and incubated with mouse anti-ATM pSer1981 for 1 h (1:500; Rockland Immunochemicals, Inc). After a second blocking, cells were stained with FITC-conjugated anti-mouse IgG (1:150; Jackson ImmunoResearch Laboratories) for 1 h and mounted onto slides.
Studies on IR-induced ATMs1981 foci formation by RTC#13 and derivatives 13a, 13b, 13d, 13e, 13f, 13g, 13h, 13i, 13j, and 13k in A-T153LA cells (TGA) were performed according to the procedures provided in Example 1.
as §1

[4] = tested on: dystrophin in mdx myotubes (TAA); experiment: Dystrophin expression in mdx myotubes; assay type: cell-based, mouse; details: FIG. 21
Description: To investigate the ability of RTC#13 and #14 to readthrough a PTC mutation in genes other than ATM, we used mdx myotubes. The mdx mouse has been widely used as a model for Duchenne muscular dystrophy. It carries a C to T transition in exon 23 of the dystrophin gene that creates a premature stop codon (TAA), resulting in an absence of dystrophin protein (Sicinski, et al., 1989, Science. 244:1578-1580). […] Muscle progenitor cells isolated from mdx mice were induced to differentiate for 24 h before addition of gentamicin or compounds RTC#13 and #14. Myotube cultures were exposed to compounds for 72 h and then analyzed for dystrophin by Western blotting. […] We next used immunoprecipitation to increase the sensitivity of the assay (FIG. 8). […] Results were consistent in multiple experiments performed.
Cells were prepared and treated with RTCs for 3 d. Dystrophin proteins were detected by Western blot analysis using immunoprecipitation. Wild-type cells were used in the experiment to localize dystrophin protein. Gentamicin was used as a positive readthrough control. […] Results were consistent in three independent experiments.
Cells were derived from limb muscle of neonatal mdx and C57 mice, as previously described (Bertoni and Rando, 2002, Hum. Gene Ther. 13:707-718). For growth, cells were plated on dishes coated with 5 µg/ml laminin (Invitrogen) and maintained in growth medium consisting of Ham's F10 nutrient mixture (Mediatech, Inc.) supplemented with 20% fetal bovine serum, penicillin, and streptomycin. Cell differentiation was induced by maintaining the cells in low serum medium (differentiation medium) consisting of DME supplemented with 2% horse serum, penicillin, and streptomycin. Myoblasts were plated in wells of 6-well dishes and were allowed to differentiate for 24 h before adding the compounds. Media was replaced every 24 h with fresh differentiation media containing the compounds. Cells were lysed 96 h after induction of differentiation (72 h after addition of the compounds). Total protein was determined and dystrophin immunoblot analysis was performed as previously described (Sicinski et al., 1989). 250 μg of total protein from each sample was immunoprecipitated using a monoclonal antibody directed toward the rod domain (MANDYS—8; 1:40; Sigma-Aldrich) of the dystrophin protein and detected by Western blotting (Barton-Davis et al., 1999, J. Clin. Invest. 104:375-381; Bertoni and Rando, 2002).
Muscle cells were induced to differentiate to allow the formation of myotubes and synthesis of dystrophin mRNA. Compounds were added 24 hrs after induction of differentiation by direct addition into the media. The media was replaced every 24 hrs with fresh differentiation media containing the appropriate concentration of compounds. Myotubes were harvested 72 hrs later (96 hrs after induction of differentiation) and analyzed for dystrophin expression by immunoblot analysis (FIG. 14).
Cultures were analyzed for dystrophin expression by immunohistochemistry.
In the experiments shown in FIG. 21, the activity of two of the analogs of RTC#13 termed RTC#BZ6 and RTC#BZ16 was investigated in myotube cultures isolated from mdx mice. Compounds were added to the differentiation media 24 hrs after induction of differentiation and replaced every 24 hrs by changing the media with new fresh media containing the appropriate concentration of RTC#13, RTC#BZ6 or RTC#BZ16. […] No dystrophin expression was detected in cells treated with vehicle only at a final concentration of 10 μM.

[5] = cited from earlier work
[6] = Table 2, compounds 7, 30 µM, change in fluorescence intensity before and after ionizing radiation
[7] = Table 4, compounds 13 and 15, 30 μM

Structure (SMILES) | FC-ATM (Delta-FI, 30 μM) [1, 6] | PTT-ELISA [2] | FCATMs1981 [1] | further results
N=C1NC(=O)/C(=C/c2ccc(-c3ccccc3)o2)S1 [Compound 7a, (Z)-2-imino-5-((5-phenylfuran-2-yl)methylene)thiazolidin-4-one] | negative | + | – | –
O=C1NC(=S)S/C1=C\c1ccc(-c2ccccc2[N+](=O)[O-])o1 [Compound 7b, (Z)-5-((5-(2-nitrophenyl)furan-2-yl)methylene)-2-thioxothiazolidin-4-one] | negative | + | – | –
N=C1NC(=O)/C(=C/c2ccc(-c3ccccc3C(F)(F)F)o2)S1 [Compound 7d, (Z)-2-imino-5-((5-(2-(trifluoromethyl)phenyl)furan-2-yl)methylene)thiazolidin-4-one] | negative | + | – | –
COc1ccccc1-c1ccc(/C=C2\SC(=N)NC2=O)o1 [Compound 7e, (Z)-2-imino-5-((5-(2-methoxyphenyl)furan-2-yl)methylene)thiazolidin-4-one] | negative | + | – | –
N=C1NC(=O)/C(=C/c2ccc(-c3ccccc3Cl)o2)S1 [Compound 7f, (Z)-5-((5-(2-chlorophenyl)furan-2-yl)methylene)-2-iminothiazolidin-4-one] | negative | + | – | –
N=C1NC(=O)/C(=C/c2ccc(-c3cccc(F)c3)o2)S1 [Compound 7j, (Z)-5-((5-(3-fluorophenyl)furan-2-yl)methylene)-2-iminothiazolidin-4-one] | negative | + | – | –
O=C1NC(=S)S/C1=C\c1ccc(-c2ccccc2Cl)o1 [Compound 7m, (Z)-5-((5-(2-chlorophenyl)furan-2-yl)methylene)-2-thioxothiazolidin-4-one] | 3.55 | + | + | FC-ATM readthrough activity [1]: the best of this group
O=C1NC(=S)S/C1=C\c1ccc(-c2ccccc2F)o1 [Compound 7n, (Z)-5-((5-(2-fluorophenyl)furan-2-yl)methylene)-2-thioxothiazolidin-4-one] | 2.86 | + | + | –
O=C1NC(=S)S/C1=C\c1ccc(-c2cccc(F)c2)o1 [Compound 7q, (Z)-5-((5-(3-fluorophenyl)furan-2-yl)methylene)-2-thioxothiazolidin-4-one] | 3.44 | + | + | FC-ATM readthrough activity [1]: the best of this group
O=c1ccn(Cc2ccc(-c3ccccc3[N+](=O)[O-])o2)c(=O)[nH]1 [Compound 13a, 1-((5-(2-nitrophenyl)furan-2-yl)methyl)pyrimidine-2,4(1H,3H)-dione] | – | – | + | IR-induced ATMs1981 foci formation, readthrough activity [3]: statistically significant readthrough activity; IRIF-ATM (%) (30 μM) [3]: 10.67%; FC-ATM (Delta-FI, 30 μM) [1, 7]: 4.94; concentration giving the highest level of readthrough activity [4]: 5 µM; dystrophin expression in mdx myotube cultures [4]: effective
N=C1NC(=O)/C(=C/c2c[nH]c(=O)[nH]c2=O)S1 [Compound 13k, (Z)-5-((2-imino-4-oxothiazolidin-5-ylidene)methyl)pyrimidine-2,4(1H,3H)-dione] | – | – | + | IR-induced ATMs1981 foci formation, readthrough activity [3]: statistically significant readthrough activity; also recorded: good activity; IRIF-ATM (%) (30 μM) [3]: 17%; IRIF (ATMs1981) ([3]; summary of positive results): +; FC-ATM readthrough activity [1]: good activity; FC-ATM (Delta-FI, 30 μM) [1, 7]: 5.32; dystrophin expression in mdx myotube cultures [4]: levels of dystrophin expression comparable to that achieved using the parent compound RTC#13
N=c1ccn(Cc2ccc(-c3ccccc3[N+](=O)[O-])o2)c(=O)[nH]1 [Compound 15a, 4-imino-1-((5-(2-nitrophenyl)furan-2-yl)methyl)-3,4-dihydropyrimidin-2(1H)-one] | – | – | – | IRIF-ATM (%) (30 μM) [3]: negative; FC-ATM (Delta-FI, 30 μM) [1, 7]: negative
N=c1[nH]c(=O)n(Cc2ccc(-c3ccccc3[N+](=O)[O-])o2)cc1F [Compound 15b] | – | – | – | IRIF-ATM (%) (30 μM) [3]: negative; FC-ATM (Delta-FI, 30 μM) [1, 7]: negative
O=C(O)c1cccc(-c2noc(-c3ccccc3F)n2)c1 [PTC124] | – | – | – | tolerability ([5]; phase-I clinical study in cystic fibrosis): generally well tolerated; readthrough activity compared with aminoglycosides ([5]; phase-I clinical study): more efficient readthrough activity than aminoglycosides
